{"source": "ChEMBL document CHEMBL1201862", "about": "“PubChem BioAssay data set” (2004)", "key": {"[1]": {"molecular_target": "Potassium voltage-gated channel subfamily KQT member 2 (Rattus norvegicus, UniProt O88943, W236L)", "sequence (O88943 whole entry W236L)": "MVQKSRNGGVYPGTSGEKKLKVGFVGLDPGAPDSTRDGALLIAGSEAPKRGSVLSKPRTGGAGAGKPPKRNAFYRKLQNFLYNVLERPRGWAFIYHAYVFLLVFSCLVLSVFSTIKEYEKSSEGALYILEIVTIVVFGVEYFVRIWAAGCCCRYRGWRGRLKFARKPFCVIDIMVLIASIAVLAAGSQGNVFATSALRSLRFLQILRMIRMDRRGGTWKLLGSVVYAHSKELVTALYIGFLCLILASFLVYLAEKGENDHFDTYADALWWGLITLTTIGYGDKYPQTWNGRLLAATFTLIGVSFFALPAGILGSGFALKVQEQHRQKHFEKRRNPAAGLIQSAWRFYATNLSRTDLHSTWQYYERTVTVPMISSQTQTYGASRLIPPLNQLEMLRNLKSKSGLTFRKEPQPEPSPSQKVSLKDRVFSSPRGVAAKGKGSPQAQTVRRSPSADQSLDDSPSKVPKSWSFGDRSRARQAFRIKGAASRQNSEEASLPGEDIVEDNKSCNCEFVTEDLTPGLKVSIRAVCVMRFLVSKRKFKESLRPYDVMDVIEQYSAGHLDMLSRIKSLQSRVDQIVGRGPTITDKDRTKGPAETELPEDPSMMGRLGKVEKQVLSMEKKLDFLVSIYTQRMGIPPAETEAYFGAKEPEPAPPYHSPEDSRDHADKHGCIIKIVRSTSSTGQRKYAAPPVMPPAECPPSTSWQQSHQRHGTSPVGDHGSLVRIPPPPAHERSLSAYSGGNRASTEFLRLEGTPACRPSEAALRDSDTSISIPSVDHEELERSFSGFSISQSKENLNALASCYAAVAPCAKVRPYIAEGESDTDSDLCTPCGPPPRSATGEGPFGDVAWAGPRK", "experiment": "potentiation of rat KCNQ2 current – cell-based, automated electrophysiology, mechanism study for KCNQ2 potentiator project, dose response (AID 2603)", "assay_type": "functional"}, "[2]": {"molecular_target": "T1, Long-chain-fatty-acid--AMP ligase FadD28 (Mycobacterium tuberculosis, UniProt P9WQ59)", "T1 sequence (P9WQ59 whole entry)": "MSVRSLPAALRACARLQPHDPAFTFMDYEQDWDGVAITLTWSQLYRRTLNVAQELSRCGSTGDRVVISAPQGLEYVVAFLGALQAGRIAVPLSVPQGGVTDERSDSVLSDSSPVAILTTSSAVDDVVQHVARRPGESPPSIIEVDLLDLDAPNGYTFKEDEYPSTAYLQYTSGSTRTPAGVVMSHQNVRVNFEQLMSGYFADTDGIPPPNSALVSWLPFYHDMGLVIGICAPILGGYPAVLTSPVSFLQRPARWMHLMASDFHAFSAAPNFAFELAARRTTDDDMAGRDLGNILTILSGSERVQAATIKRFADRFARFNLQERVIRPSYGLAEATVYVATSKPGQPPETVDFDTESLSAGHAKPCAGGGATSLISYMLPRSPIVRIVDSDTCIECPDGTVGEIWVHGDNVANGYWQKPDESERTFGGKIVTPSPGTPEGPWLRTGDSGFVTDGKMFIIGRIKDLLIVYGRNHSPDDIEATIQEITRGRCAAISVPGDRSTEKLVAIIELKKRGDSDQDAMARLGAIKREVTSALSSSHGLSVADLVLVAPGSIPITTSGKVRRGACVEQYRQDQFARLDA", "experiment": "Fluorescence polarization aasay to screen for inhibitors that compete for the binding of FadD28 to a bisubstrate Measured in Biochemical System Using Plate Reader - 2147-01_Inhibitor_Dose_CherryPick_Activity.", "assay_type": "functional, Mycobacterium tuberculosis H37Rv"}, "[3]": {"experiment": "microbe, parasite or virus in culture", "assay_type": "functional", "details": "Mycobacterium tuberculosis"}, "[4]": {"experiment": "A High Throughput Confirmatory Assay used to Identify Novel Compounds that Inhibit Mycobacterium Tuberculosis in the absence of Glycerol.", "assay_type": "functional"}, "[5]": {"experiment": "viability of uninfected HEp-2 cells – cell-based, HTS, cytotoxicity control for RSV inhibitor project, dose response (AID 2410)", "assay_type": "functional", "details": "human respiratory syncytial virus"}, "[6]": {"experiment": "HEK-293T viability loss after treatment – luminescence, T-cell screen hits, cytotoxicity control for TCR NF-kB inhibitor project, dose response (AID 489026);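 note: cells exposed to compound about 14 hours before the viability readout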", "assay_type": "functional, cell-based"}, "Vero": {"system": "Vero", "experiment": "inhibition of WNV-induced cytopathic effect – cell-based, CPE readout (AID 1621)", "assay_type": "functional", "details": "Chlorocebus sabaeus"}, "[7]": {"molecular_target": "Protein-tyrosine kinase 2-beta (Homo sapiens, UniProt Q14289)", "sequence (Q14289 whole entry)": "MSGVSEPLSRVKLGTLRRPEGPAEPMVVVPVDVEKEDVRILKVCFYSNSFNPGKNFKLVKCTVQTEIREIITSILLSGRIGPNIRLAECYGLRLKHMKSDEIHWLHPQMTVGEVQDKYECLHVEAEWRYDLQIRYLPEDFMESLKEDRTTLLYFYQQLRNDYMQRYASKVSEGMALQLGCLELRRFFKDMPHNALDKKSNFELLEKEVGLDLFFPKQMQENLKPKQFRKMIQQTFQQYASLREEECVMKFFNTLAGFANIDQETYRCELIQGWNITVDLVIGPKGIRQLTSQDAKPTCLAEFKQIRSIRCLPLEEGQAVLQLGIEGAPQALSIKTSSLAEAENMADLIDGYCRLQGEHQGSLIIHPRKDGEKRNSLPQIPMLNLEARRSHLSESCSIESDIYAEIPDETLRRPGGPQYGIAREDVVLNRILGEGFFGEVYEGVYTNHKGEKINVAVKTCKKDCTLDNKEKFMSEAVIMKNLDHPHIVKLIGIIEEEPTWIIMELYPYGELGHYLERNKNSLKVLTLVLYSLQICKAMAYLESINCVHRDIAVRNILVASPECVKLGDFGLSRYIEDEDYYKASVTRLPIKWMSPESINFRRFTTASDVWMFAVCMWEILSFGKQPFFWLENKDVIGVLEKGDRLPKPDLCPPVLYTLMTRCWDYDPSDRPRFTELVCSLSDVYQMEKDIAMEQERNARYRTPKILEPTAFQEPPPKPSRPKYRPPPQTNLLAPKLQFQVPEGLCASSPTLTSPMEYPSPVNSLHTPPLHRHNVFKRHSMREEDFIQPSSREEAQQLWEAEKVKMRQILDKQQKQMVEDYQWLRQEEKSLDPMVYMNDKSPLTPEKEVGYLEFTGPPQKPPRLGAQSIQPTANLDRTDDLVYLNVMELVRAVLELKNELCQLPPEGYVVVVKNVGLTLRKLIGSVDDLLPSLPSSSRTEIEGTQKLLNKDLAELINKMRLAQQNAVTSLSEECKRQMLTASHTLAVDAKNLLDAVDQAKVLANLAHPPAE"}, "Danio rerio": {"system": "Danio rerio", "experiment": "In Vivo Angiogenesis Dose-Response Confirmation. [Related pubchem assays: 732 (Assay preceding this confirmatory assay.)]", "assay_type": "functional, organism-based"}, "[8]": {"molecular_target": "Transitional endoplasmic reticulum ATPase (Homo sapiens, UniProt P55072)", "sequence (P55072 whole entry)": "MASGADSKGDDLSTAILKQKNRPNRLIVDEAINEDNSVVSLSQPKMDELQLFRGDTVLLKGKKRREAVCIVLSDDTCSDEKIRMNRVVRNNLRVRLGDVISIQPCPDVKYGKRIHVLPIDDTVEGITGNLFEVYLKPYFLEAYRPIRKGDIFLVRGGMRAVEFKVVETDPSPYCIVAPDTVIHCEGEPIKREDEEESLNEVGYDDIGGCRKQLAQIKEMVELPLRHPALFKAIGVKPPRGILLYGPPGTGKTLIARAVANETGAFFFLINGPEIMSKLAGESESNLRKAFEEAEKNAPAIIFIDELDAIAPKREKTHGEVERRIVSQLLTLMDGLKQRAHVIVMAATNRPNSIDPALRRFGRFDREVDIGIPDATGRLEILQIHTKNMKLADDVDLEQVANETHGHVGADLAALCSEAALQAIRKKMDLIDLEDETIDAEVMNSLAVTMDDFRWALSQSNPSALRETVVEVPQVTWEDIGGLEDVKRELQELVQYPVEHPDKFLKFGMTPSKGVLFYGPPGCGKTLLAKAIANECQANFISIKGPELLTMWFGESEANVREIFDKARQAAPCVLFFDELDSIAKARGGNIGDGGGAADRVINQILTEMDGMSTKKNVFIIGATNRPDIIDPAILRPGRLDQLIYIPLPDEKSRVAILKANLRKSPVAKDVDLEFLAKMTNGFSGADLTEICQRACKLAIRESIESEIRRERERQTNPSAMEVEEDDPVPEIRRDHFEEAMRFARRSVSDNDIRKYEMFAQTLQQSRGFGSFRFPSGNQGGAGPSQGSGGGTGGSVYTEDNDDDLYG", "experiment": "Luminescence dose response biochemical high throughput screening assay for inhibitors of the p97 ATPase: synthesized compounds. [Related pubchem assays: 1481, 1517 ]"}, "[9]": {"molecular_target": "Transitional endoplasmic reticulum ATPase (Homo sapiens, UniProt P55072, C522A)", "sequence (P55072 2-806 C522A limits assumed)": "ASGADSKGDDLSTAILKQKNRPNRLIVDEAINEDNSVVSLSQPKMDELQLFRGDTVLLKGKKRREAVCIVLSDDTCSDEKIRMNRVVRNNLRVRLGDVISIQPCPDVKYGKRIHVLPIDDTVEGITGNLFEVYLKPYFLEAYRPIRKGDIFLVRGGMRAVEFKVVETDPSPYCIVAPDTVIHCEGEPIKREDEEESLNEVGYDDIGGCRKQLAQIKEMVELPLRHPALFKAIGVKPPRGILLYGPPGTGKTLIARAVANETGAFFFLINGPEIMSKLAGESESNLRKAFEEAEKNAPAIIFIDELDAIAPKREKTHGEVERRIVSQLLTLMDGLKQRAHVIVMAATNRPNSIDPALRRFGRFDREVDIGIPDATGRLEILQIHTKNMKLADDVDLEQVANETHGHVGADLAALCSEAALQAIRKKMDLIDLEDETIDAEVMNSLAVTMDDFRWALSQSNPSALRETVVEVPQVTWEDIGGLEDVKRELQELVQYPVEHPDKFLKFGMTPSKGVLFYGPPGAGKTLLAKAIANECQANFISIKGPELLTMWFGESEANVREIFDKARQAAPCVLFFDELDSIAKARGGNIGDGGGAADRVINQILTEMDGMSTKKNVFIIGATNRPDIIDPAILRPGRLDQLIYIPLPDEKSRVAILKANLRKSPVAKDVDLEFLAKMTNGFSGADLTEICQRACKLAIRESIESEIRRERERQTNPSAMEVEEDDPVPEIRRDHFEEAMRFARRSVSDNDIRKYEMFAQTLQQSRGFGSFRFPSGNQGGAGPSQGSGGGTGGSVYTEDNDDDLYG", "experiment": "Luminescence counterscreen assay for p97 inhibitors: dose response biochemical high throughput screening assay to identify inhibitors of the C522A mutant p97 ATPase: synthesized compounds. [Related pubchem assays: 1481, 1517, 1551 ]"}}, "note": "Activity calls are given as the source filed them."}
{"smiles": "CC(C)n1c(O)c(N=Nc2ccc(Cl)c(C(=O)O)c2)c2ccccc21", "values": [{"measurement": "EC50", "setting": "[1]", "result": "3.7 µM (active)"}, {"measurement": "AC50", "setting": "[2]", "result": "35.7 µM (active)"}]}
{"smiles": "C#CCOc1ccc2c(c1)c(C(C)=O)c(C)n2Cc1ccccc1", "values": [{"measurement": "CC50", "setting": "[3]", "result": "> 40 µM (active)"}, {"measurement": "IC50", "setting": "[4]", "result": "> 100 µM (active)"}]}
{"smiles": "CC(C)c1oc(=O)cc2c1[C@@H](O)[C@H]1OC(=O)[C@@]3(C)CC[C@@H](O)[C@@]2(C)C13", "note": "(some centres not stated)", "values": [{"measurement": "CC50", "setting": "[5]", "result": "10.4 µM (active)"}, {"measurement": "IC50", "setting": "[6]", "result": "> 80 µM (inactive)"}, {"measurement": "IC50", "setting": "cells", "result": "12.2 µM (active)"}, {"measurement": "IC50", "setting": "Vero", "result": "17.4 µM (active)"}]}
{"smiles": "Clc1ccc2[nH]cc(-c3nnnn3-c3ccccc3)c2c1", "values": [{"measurement": "IC50", "setting": "[7]", "result": "> 69.5 µM (not active)"}]}
{"smiles": "O=C1Nc2ccc(F)cc2/C1=C1/Nc2ccc(Br)cc2/C1=N\\O", "values": [{"measurement": "IC50", "setting": "Danio rerio", "result": "0.29 µM (not active)"}]}
{"smiles": "CCOC(=O)/C(C#N)=C/c1c[nH]c2ccc(C#N)cc12", "values": [{"measurement": "IC50", "setting": "[8]", "result": "> 50 µM (not active)"}, {"measurement": "IC50", "setting": "[9]", "result": "> 50 µM (not active)"}]}
